Source: US7045315B2, “Methods for modulating expression of exogenous genes in mammalian systems” (The Salk Institute for Biological Studies, priority 1998, dated 2006)

Columns and labels:
Format in all cases: cell-based
[1] = test system: VgEcR/RXR heterodimer; experiment: Assay for inducer effectiveness on the ecdysone-inducible expression system (E/GRE4-ΔMTV-Luc reporter, CV-1 cells); conditions: for ability to activate the expression system in the further presence of an RXR agonist: diacylhydrazine plus LG1000268 vs alone, FIG. 4
Protocol: CV-1 cells were maintained in DMEM supplemented with 10% fetal bovine serum. Transfections were performed using the Dotap transfection reagent (Boehringer Mannheim). All candidate inducers were dissolved in either ethanol or DMSO. Muristerone A (MurA) was used as a positive control for activation. All transfections were performed in triplicate.
The E/GRE4-ΔMTV-Luc plasmid is routinely used as a reporter. […] A CMX-β-gal reporter plasmid was included in the transfection as a control for transfection efficiency. Approximately 10 hours after transfection, the media was removed and replaced with fresh media containing varying concentrations of the putative inducers. Cells were exposed to candidate activators for 20–48 hours, then assayed for luciferase and β-galactosidase activity employing standard techniques. Luciferase values were normalized using β-galactosidase activity levels.

[2] = biological target: T1, ecdysone receptor heterodimer with retinoid X receptor (RXR) (Drosophila melanogaster, UniProt P34021); experiment: Transient transfection reporter assay in CV-1 cells, USP replaced by RXR; conditions: 1 μM muristerone A, FIG. 1A
T1 construct: expressed in transfected cells; host or cells: CV-1 cells
T1 sequence (P34021 1-878): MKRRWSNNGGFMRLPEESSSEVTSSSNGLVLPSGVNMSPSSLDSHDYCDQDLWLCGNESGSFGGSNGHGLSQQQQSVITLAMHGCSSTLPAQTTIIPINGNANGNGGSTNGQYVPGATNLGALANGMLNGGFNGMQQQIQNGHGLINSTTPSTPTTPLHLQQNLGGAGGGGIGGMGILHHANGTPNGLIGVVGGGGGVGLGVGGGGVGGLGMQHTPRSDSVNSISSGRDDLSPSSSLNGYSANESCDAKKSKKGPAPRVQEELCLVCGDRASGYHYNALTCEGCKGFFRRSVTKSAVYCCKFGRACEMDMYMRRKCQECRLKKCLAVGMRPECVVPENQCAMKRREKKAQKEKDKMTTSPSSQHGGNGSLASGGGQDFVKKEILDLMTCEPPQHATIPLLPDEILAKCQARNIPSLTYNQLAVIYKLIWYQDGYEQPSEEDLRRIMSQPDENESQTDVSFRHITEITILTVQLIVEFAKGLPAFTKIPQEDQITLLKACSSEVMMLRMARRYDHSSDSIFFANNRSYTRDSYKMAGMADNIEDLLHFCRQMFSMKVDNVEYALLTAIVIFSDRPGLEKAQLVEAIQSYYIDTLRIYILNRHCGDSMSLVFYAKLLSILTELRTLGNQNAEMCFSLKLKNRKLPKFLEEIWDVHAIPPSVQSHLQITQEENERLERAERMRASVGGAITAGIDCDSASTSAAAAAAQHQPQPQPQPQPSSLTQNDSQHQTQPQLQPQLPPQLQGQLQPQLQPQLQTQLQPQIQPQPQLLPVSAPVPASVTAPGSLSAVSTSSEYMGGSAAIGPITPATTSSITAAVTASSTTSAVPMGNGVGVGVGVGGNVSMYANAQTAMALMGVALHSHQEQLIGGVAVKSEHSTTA
T1 sequence (P19793 1-462 partner): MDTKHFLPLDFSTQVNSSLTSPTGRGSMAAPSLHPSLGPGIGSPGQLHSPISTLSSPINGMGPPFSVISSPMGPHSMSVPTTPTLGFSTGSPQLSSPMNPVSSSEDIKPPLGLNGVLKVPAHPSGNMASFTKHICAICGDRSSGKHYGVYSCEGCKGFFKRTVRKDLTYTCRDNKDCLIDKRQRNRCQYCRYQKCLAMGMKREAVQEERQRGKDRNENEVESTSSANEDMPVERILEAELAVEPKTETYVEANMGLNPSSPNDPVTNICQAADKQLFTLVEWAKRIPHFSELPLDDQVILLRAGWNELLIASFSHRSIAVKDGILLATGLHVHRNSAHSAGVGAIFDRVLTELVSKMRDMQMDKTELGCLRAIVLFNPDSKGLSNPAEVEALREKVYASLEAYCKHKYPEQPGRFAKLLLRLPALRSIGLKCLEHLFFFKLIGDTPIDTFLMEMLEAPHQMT
Protocol: (§1) CV-1 cells were maintained in DMEM supplemented with 10% Fetal Bovine Serum. Transient transfections were performed using DOTAP transfection reagent (Boehringer-Mannheim). Transfections using β-galactosidase as the reporter were assayed either by Galactolight luminescent assay (Tropix, Bedford, Mass.) or by standard liquid ONPG assay (Sigma, St. Louis, Mo). The values were normalized by co-transfection of CMX-luciferase. Transfections using luciferase as the reporter were assayed by standard techniques using luciferin and ATP. These values were normalized by co-transfection of CMX-β-galactosidase. Hormone treated cells were treated with ethanol, 50 μM Juvenile Hormone III (Sigma), 1 μM muristerone A (Zambon, Bresso, IT), or 1 μM dexamethasone (Sigma) unless otherwise noted.
(§2) To maximize the sensitivity of the invention ecdysone inducible system, modifications of the ecdysone receptor were made. The N-terminal transactivation domain of the ecdysone receptor was replaced by the corresponding domain of the glucocorticoid receptor (GR), resulting in the modified ecdysone receptor GEcR (See FIG. 1D). CV-1 cells were transfected with the plasmid CMX-GEcR encoding the modified ecdysone receptor as discussed above. […]

[3] = biological target: T2, ecdysone receptor (EcR) with USP (Drosophila melanogaster, UniProt P34021); experiment: Transient transfection reporter assay in CV-1 cells, ecdysone receptor with USP; conditions: 1 μM muristerone A vs ethanol, unmodified ecdysone receptor, FIG. 1A
T2 construct: expressed in transfected cells; host or cells: CV-1 cells
T2 sequence (P34021 1-878): T1 sequence (P34021 1-878)
T2 sequence (P20153 1-508 partner): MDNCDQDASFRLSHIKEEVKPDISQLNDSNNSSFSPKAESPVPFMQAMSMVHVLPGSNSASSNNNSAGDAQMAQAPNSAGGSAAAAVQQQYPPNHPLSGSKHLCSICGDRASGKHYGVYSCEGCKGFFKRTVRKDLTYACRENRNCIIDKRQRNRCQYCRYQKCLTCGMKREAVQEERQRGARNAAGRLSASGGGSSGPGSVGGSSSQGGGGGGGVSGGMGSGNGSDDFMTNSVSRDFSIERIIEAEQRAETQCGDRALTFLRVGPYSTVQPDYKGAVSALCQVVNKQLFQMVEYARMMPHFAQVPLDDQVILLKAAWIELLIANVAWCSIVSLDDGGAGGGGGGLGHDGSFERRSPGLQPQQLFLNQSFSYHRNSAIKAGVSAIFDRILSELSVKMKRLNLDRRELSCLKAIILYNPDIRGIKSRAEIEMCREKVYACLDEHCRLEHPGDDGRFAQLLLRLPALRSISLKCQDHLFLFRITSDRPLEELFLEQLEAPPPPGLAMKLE
Protocol: as §1, §2

[4] = test system: GEcR (modified ecdysone receptor); experiment: Transient transfection reporter assay in CV-1 cells, modified ecdysone receptor GEcR; conditions: 1 μM muristerone A vs ethanol; CV-1 cells transfected with CMX-GEcR; FIG. 1A
Protocol: as §1, §2

[5] = test system: RXR and VpEcR heterodimer; experiment: Transient transfection reporter assay in CV-1 cells, RXR and VpEcR; conditions: 1 μM muristerone A, FIG. 1A
Protocol: as §1

| SMILES | ability to activate the expression system in the further presence of an RXR agonist [1] | fold induction of reporter [2] | muristerone responsiveness (fold induction of reporter) [3] | activation of the ecdysone-inducible system, combination with RXR ligand ([1]; MurA concentration varied, LG1000268 constant 100 nM, FIG. 3) | activation of the ecdysone-inducible system, ligand alone ([1]; ligand alone over several concentrations, luciferase normalized to β-galactosidase, FIG. 3) | muristerone responsiveness (fold induction of reporter) [4] | fold induction of reporter [5] |
| --- | --- | --- | --- | --- | --- | --- | --- |
| CCc1ccc(C(=O)NN(C(=O)c2cc(C)cc(C)c2)C(C)(C)C)cc1 [N′-(3,5-dimethylbenzoyl)-N-(4-ethylbenzoyl)-N′-(tert-butyl) hydrazine] | enhanced ability | – | – | – | – | – | – |
| Cc1cc(C)cc(C(=O)N(NC(=O)c2ccc3c(c2C)OCCO3)C(C)(C)C)c1 [N′-(3,5-dimethylbenzoyl)-N-(2-methyl-3,4-(ethylenedioxy)-benzoyl)-N′-(tert-butyl) hydrazine] | enhanced ability | – | – | – | – | – | – |
| CC(C)CC[C@@H](O)[C@](C)(O)[C@H]1CC[C@@]2(O)C3=CC(=O)[C@]4(O)C[C@@H](O)[C@@H](O)C[C@]4(C)[C@H]3[C@H](O)C[C@]12C [muristerone A] | – | 34 fold | 3 fold | dramatically enhances the activation | effective inducer | 11 fold | 212 fold |
